Laboratory results taken from patent EP4671261A1, “NOVEL PEPTIDE EXHIBITING SKIN CONDITION IMPROVEMENT ACTIVITY AND COSMETIC COMPOSITION CONTAINING SAME” (Daebong LS Co., Ltd., priority 2023, dated 2024).
Where a SMILES comes first, the peptide text is derived from it.

Assays:
NHDF cells = assay: Procollagen Type I Peptide (PIP) production, EIA of culture supernatant; type: cell-based, Human; conditions: 10 µg/mL (positive control), untreated group = 100
Method: Normal Human Dermal Fibroblasts (NHDF) were obtained from Lonza (Lonza Walkersville, Inc.) and cultured in FBM (Fibroblast Basal Medium) supplemented with 0.1% hFGF-B, insulin, GA-1000, and 2% FBS at 37°C in a 5% CO2 incubator. Subculture was performed every 2 to 3 days.
NHDF cells were seeded at 2.0 × 10^4 cells/well in a 24-well plate and incubated for 24 hours at 37°C in a 5% CO2 incubator. After incubation, the culture medium was replaced with serum-free FBM, and the peptide prepared in the above Example was applied at concentrations of 1-100 µM, followed by incubation for 24 hours. The supernatant from each experimental group was collected, and the amount of procollagen released into the medium was measured. The positive control group was treated with ascorbic acid at a concentration of 0.001 v/v%. Measurement of procollagen levels was performed using a Procollagen Type I Peptide (PIP) EIA Kit (Takara Biomedical Co.) according to the manufacturer's protocol. The quantitative results of procollagen type I peptide production following treatment with the peptide of the Example are shown in Table 3 and Fig. 4.

RAW264.7 cells [1] = assay: EZ-cytox cell viability assay in macrophages; type: cell-based; conditions: 10 µM (positive control), LPS (1µg/ml)
Method: (§1) RAW264.7 macrophage cells were obtained from the American Type Culture Collection (ATCC) and cultured in Dulbecco's Modified Eagle's Medium (DMEM) containing 100 units/mL penicillin-streptomycin and 10% (v/v) fetal bovine serum (FBS) at 37°C in a 5% CO2 incubator, and subculture was performed every 2 to 3 days.
(§2) The EZ-cytox assay is a representative method for measuring cell viability using the principle that water-soluble tetrazolium salts (WSTs) react with dehydrogenases of viable cells to produce a water-soluble orange formazan.
(§3) To evaluate cytotoxicity, RAW264.7 cells were seeded at 1.5 × 10^4 cells/well in a 96-well plate using DMEM supplemented with 10% FBS and incubated for 18 hours at 37°C in a 5% CO2 incubator. The test samples were then applied to the cultured cells. After treatment, EZ-cytox was added to each well and incubated for 30 minutes under the same conditions. Absorbance was measured at 450 nm using a microplate reader. The mean absorbance values of each sample group were compared with the control group to determine cell viability.

RAW264.7 cells [2] = assay: Inhibition of nitric oxide (NO) production, Griess reagent, LPS-stimulated macrophages; type: cell-based; conditions: 10 µM (positive control), LPS (1µg/ml), relative to LPS control = 100
Method: as §1
RAW264.7 cells were seeded at 1.5 × 10^5 cells/well in a 24-well plate and incubated for 18 hours at 37°C in a 5% CO2 incubator. The cells were then treated with the peptide prepared in the above Example at concentrations of 50-200 µM and incubated for 24 hours. From each experimental group, 100 µL of the supernatant was collected into a 96-well plate, and 100 µL of griess reagent was added. The mixture was allowed to react at room temperature for 10 minutes, and absorbance was measured at 540 nm using a microplate reader. […] The relative levels of NO production following the treatments described in the above Example, based on NO production induced by the stimulant (LPS), are shown in Table 1 and Figure 2 below.

[3] = EZ-cytox cell viability assay in macrophages; type: cell-based; conditions: mouse, RAW264.7 macrophage cells, LPS (1µg/ml)
Method: as §1, §2, §3

HaCaT cells = assay: Hyaluronic acid (HA) production, ELISA of culture supernatant; type: cell-based, human; conditions: 10 mM (positive control), untreated group = 100
Method: The HaCaT human keratinocyte cell line was obtained from Cell Line Service GmbH (Germany). The cells were cultured in DMEM containing 1% penicillin-streptomycin and 10% fetal bovine serum (FBS) at 37°C in a 5% CO2 incubator, and subculture was performed every 2 to 3 days.
HaCaT cells were seeded at 1.0 × 10^5 cells/well in a 24-well plate and incubated for 24 hours at 37°C in a 5% CO2 incubator. After incubation, the culture medium was replaced with serum-free DMEM, and the peptide prepared in the above Example was applied at concentrations of 50-200 µM, followed by incubation for 24 hours. The supernatant from each experimental group was collected, and the amount of hyaluronic acid (HA) released into the medium was measured. The positive control group was treated with N-acetylglucosamine at a concentration of 10 mM. Measurement of hyaluronic acid production was conducted using a Hyaluronic Acid ELISA Kit (Cusabio Biotechnology Co., Ltd.) following the manufacturer's protocol.

Question: Which “Procollagen production (%)” value (NHDF cells) does the source give for `O=C1O[C@H]([C@@H](O)CO)C(O)=C1O` [Asc.A, ascorbic acid] here?
Answer: 175.82±3.91%

Question: Which “Cell viability (%)” value (RAW264.7 cells [1]) does the source give for `Cc1ccnc(N)c1` [Example 2-AM, 2-amino-4-methylpyridine] here?
Answer: 94.12±1.76%

Question: What about the “NO Production (%)” value (RAW264.7 cells [2]) of the same molecule?
Answer: 10.23±0.55%

Question: What does the source list for `N[C@@H](Cc1ccc(O)cc1)C(=O)NCC(=O)N[C@@H](CO)C(=O)N[C@@H](CC(=O)O)C(=O)O` [Example, YGSD (Tyr-Gly-Ser-Asp)] (H-YGSD-OH)?
Answer: viability at 50 µM ([3]; 50 µM): 98.1 ± 1.81%; viability at 100 µM ([3]; 100 µM): 99.4 ± 2.02%; viability at 200 µM ([3]; 200 µM): 99.53 ± 0.95%

Question: For `CC(=O)N[C@H]1C(O)O[C@H](CO)[C@@H](O)[C@@H]1O` (stereo partly shown) [NAG, N-acetylglucosamine], which “Hyaluronic acid production (%)” value (HaCaT cells) is on record?
Answer: 121.43±10.37%
